# Data from patent publication US11285159B2 (AbbVie Inc., priority 2019, dated 2022).
# Where two headings read alike, the source gives them in different places.
# Legend:
# [1] = tested on: myeloproliferative neoplasm patient samples cultured ex vivo and myeloproliferative neoplasm-derived cell lines bearing the activating JAK-2 V617F mutation; conditions: cited from earlier work
# [2] = tested on: myeloproliferative neoplasm cells; endogenous erythroid colonies representing malignant PV clones; conditions: cited from earlier work
# [3] = tested on: human tumor cell lines derived from small cell lung carcinomas and lymphoid malignancies; conditions: read-out: EC50, mechanism-based cytotoxicity; cited from earlier work
# [4] = tested on: resistance to JAK-2 inhibitors associated with BCL-XL elevation; conditions: cited from earlier work
# [5] = 400 mg once daily ketoconazole; 10 subjects with cancer; cited from earlier work
# [6] = tested on: platelets; conditions: effect on platelets, cited from earlier work; for Ruxolitinib EC50: fixed to published value
# [7] = tested on: subjects with primary or secondary myelofibrosis; experiment: Phase 2 study of navitoclax in combination with ruxolitinib (Example 1)
# Text: Treatment continued until the end of clinical benefit, unacceptable toxicity, or discontinuation. The primary efficacy endpoint was percentage reduction in splenic volume from baseline. Secondary endpoints included effect on total symptom score (TSS), overall response rate, rate of anemia response, improvement in bone marrow fibrosis, and safety profile.
# For this study, inclusion criteria included the following: • 1. Subject must be ≥18 years of age. • 2. Subject has documented diagnosis of Intermediate or High-Risk Primary Myelofibrosis, Post-Polycythemia Vera Myelofibrosis (PPV-MF), or Post-Essential Thrombocythemia Myelofibrosis (PET-MF) as defined by the World Health Organization classification. • 3. Subject must be ineligible or unwilling to undergo stem cell transplantation at time of study entry. • 4. Subject must have an Eastern Cooperative Oncology Group (ECOG) Performance Score of 0, 1, or 2. • 5. […] Prior treatment with JAK-2 inhibitor for at least 12 weeks • b. Prior treatment with JAK-2 inhibitor for at least 28 days complicated by any of the following: • i. […] Splenic irradiation within 6 months prior to screening, or prior splenectomy. • 2. Leukemic transformation (>10% blasts in peripheral blood or bone marrow biopsy). • 3. Subject is currently on medications that interfere with coagulation (including warfarin) or platelet function with the exception of low dose aspirin (up to 100 mg) and low-molecular-weight heparin (LMWH). • 4. Prior therapy with a BH3 mimetic compound. • 5.
# Subjects needed to have received ruxolitinib therapy for at least 12 weeks prior to study enrollment without interruption, have splenomegaly as defined by a spleen palpable ≥5 cm below costal margin and be currently on a stable dose of ≥10 mg BID of ruxolitinib.
# [8] = tested on: spleen volume; experiment: exposure-spleen volume response model, parameter estimation (NONMEM); design: species or system human; conditions: spleen volume inhibition; R/R MF, cohort 1a data
# Text: Spleen volume data up to only week 40 was used in the model to improve model predictability. […] Inter-individual variability with full correlation matrix was incorporated on estimated baseline spleen volume, kout, EC50NAV and EC50RUX using exponential function and the residual variability was characterized using combined proportional and additive error model.
# At baseline, the rates of the spleen volume model are set to be the same kin=kout due to a theoretical steady state assumption without treatment interference. This leads to an initial condition for the SV compartment of 1, where SV predictions are derived by multiplying this compartment with baseline. Disease progression was included in the model with the factor “Eprog” on “kin”.
# [9] = biological target: T1, BCL-W (Homo sapiens, UniProt Q92843); conditions: cited from earlier work
# T1 sequence (Q92843 1-193): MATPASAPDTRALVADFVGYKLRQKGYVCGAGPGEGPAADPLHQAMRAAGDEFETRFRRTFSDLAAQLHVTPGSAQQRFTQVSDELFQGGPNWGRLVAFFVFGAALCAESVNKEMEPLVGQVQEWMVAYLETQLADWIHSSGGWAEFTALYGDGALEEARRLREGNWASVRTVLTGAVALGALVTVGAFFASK
# [10] = tested on: tumors in mice bearing the Eμ-TEL-JAK-2 transgene or PDX mice bearing JAK-2-mutated B-ALL cells; conditions: cited from earlier work
# [11] = tested on: platelets; experiment: exposure-platelet response model, parameter estimation (NONMEM); design: species or system human
# Text: The model was based on established models described in the literature (Kaefer, A., Yang, J., Noertersheuser, P. et al. Cancer Chemother Pharmacol (2014) 74: 593. doi:10.1007/s00280-014-2530-2530; and Friberg, Lena E., et al. “Model of chemotherapy-induced myelosuppression with parameter consistency across drugs. “Journal of clinical oncology 20.24 (2002): 4713-4721, both references hereby incorporated by reference in their entireties).
# PK model for ruxolitinib was described by a two-compartment model with a lag-time in absorption (Equations 2a through 2c).
# The time course of platelet response was modeled using a semi-physiological model that comprised a progenitor cell compartment, three transition compartments representing the maturation chain in the bone marrow and a peripheral blood compartment (see FIG. 2). A feedback system was used in this model to describe the increase in the maturation rate in bone marrow when the platelet level in the blood compartment is below baseline and decrease in the maturation rate when the platelet level in blood is above baseline. […] Equations 3 to 9 represent the PD model.
# The model is initialized at 0 for the PK related compartments, at POOL for the PROLIF compartment, and at 1 for the maturation and circulation compartments. The platelet prediction is obtained by (Baseline Platelets)×PLT1×PLT2. The rates of the Platelet1 model are set to be the same ktrans=kin=kout due to a steady state assumption without treatment interference.
# A factor was included on the baseline platelet count such that baseline(t=−84 days)=factor×baseline(t=0 days)
# This yields a relative pseudo baseline at initiation of ruxolitinib (referred to as ‘ruxolitinib factor’ on baseline platelet count). […] The first 56 days of data were fitted to avoid influence of long-term disease effects on the model.
# No inter-individual variability was estimated on ruxolitinib EC50 since limited data precluded its appropriate estimation.
# [12] = tested on: 22 cell lines consisting of multiple leukemia and lymphoma types spanning both B-cell and T-cell malignancies; conditions: cited from earlier work
# [13] = co-administration of navitoclax with rifampin; assay type: in vivo, human; conditions: 600 mg once daily rifampin for 4 days; 11 subjects with cancer
# Text: Increased dosage should be made with frequent monitoring of safety and efficacy.
# [14] = tested on: patients with intermediate or high-risk primary or secondary myelofibrosis; conditions: ruxolitinib monotherapy; cited from earlier work
# [15] = tested on: spleen volume; conditions: spleen volume inhibition, fixed to a published value, cited from earlier work
# [16] = 22 subjects with ruxolitinib dose reduction
structure (smiles),measurement,setting,value
CN(C)CC[C@H](CSc1ccccc1)Nc1ccc(S(=O)(=O)NC(=O)c2ccc(N3CCN(Cc4ccccc4-c4ccc(Cl)cc4)CC3)cc2)cc1[N+](=O)[O-] [ABT-737],cell killing activity,[1],cell killing activity
same,endogenous erythroid colonies growing in the absence of erythropoietin,[2]; 500 nM ABT-737,significantly inhibited
same,endogenous erythroid colonies growing in the absence of erythropoietin,[2]; 100-300 nM ABT-737 combined with a JAK-2 inhibitor,further suppressed
same,proliferation of myeloproliferative neoplasm cells,[2],ability to block the proliferation
"CC1(C)CCC(c2ccc(Cl)cc2)=C(CN2CCN(c3ccc(C(=O)NS(=O)(=O)c4ccc(N[C@H](CCN5CCOCC5)CSc5ccccc5)c(S(=O)(=O)C(F)(F)F)c4)cc3)CC2)C1 [Navitoclax, 4-(4-{[2-(4-chlorophenyl)-5,5-dimethyl-1-cyclohexen-1-yl]methyl}-1-piperazinyl)-N-[(4-{[(2R)-4-(4-morpholinyl)-1-(phenylsulfanyl)-2-butanyl]amino}-3-[(trifluoromethyl)sulfonyl]phenyl)sulfonyl]benzamide]",EC50,[3],≤ 1000 nM
same,overcoming resistance to JAK-2 inhibitors,[4],ability to overcome that resistance
same,impact on navitoclax Cmax,[5],no impact
same,increase of navitoclax AUC∞,[5],1.55 fold
same,cell killing activity,[1],cell killing activity
same,Navitoclax Emax,"[6]; fixed, based on Kaefer et al.",5
same,"Dose Delay/Interruption: More Than One Interruption, %","[7]; human, in vivo",(39.1) %
same,"Dose Delay/Interruption: No Interruption, %","[7]; human, in vivo",(34.8) %
same,"Dose Delay/Interruption: Only One Interruption, %","[7]; human, in vivo",(26.1) %
same,"Dose Reduction: More Than One Dose Reduction, %","[7]; human, in vivo",(39.1) %
same,"Dose Reduction: No Dose Reduction, %","[7]; human, in vivo",(17.4) %
same,"Dose Reduction: Only One Dose Reduction, %","[7]; human, in vivo",(43.5) %
same,"Reasons for Dose Delay/Interruption: Adverse Events, %","[7]; human, in vivo",(52.2) %
same,"Reasons for Dose Delay/Interruption: Anemia, %","[7]; human, in vivo",(4.3) %
same,"Reasons for Dose Delay/Interruption: Diarrhea, %","[7]; human, in vivo",(4.3) %
same,"Reasons for Dose Delay/Interruption: Other adverse events, %","[7]; human, in vivo",(17.4) %
same,"Reasons for Dose Delay/Interruption: Thrombocytopenia, %","[7]; human, in vivo",(34.8) %
same,"Reasons for Dose Reduction: Adverse Events, %","[7]; human, in vivo",(73.9) %
same,"Reasons for Dose Reduction: Anemia, %","[7]; human, in vivo",(17.4) %
same,"Reasons for Dose Reduction: Diarrhea, %","[7]; human, in vivo",(8.7) %
same,"Reasons for Dose Reduction: Other adverse events, %","[7]; human, in vivo",(30.4) %
same,"Reasons for Dose Reduction: Thrombocytopenia, %","[7]; human, in vivo",(47.8) %
same,"Reasons for Dose Delay/Interruption: Other (non-adverse event), %",[7]; in vivo,(30.4) %
same,"Reasons for Dose Reduction: Other (non-adverse event), %",[7]; in vivo,(17.4) %
same,"Navitoclax EC50, estimate",[8],4.37 µg/mL
same,Ki,[9],≤ 1 nM
same,survival of mice with JAK-2-mutated tumors,[10]; combination of navitoclax and a JAK-2 inhibitor vs either agent alone,superior to either agent alone
same,growth of tumors,[10]; navitoclax added to a JAK-2 inhibitor,significantly slowing the growth of tumors
same,"Navitoclax EC50, estimate and 95% confidence interval","[11]; effect on platelets, fitted to data of 34 subjects",3.61 (1.97; 6.58) mg/L
same,cell lines with potent single agent activity,[12],10 of 22
same,decrease of navitoclax AUC∞,[13],41%
same,decrease of navitoclax Cmax,[13],16%
"N#CC[C@H](C1CCCC1)n1cc(-c2ncnc3[nH]ccc23)cn1 [Ruxolitinib, (R)-3-(4-(7H-pyrrolo[2,3-d]pyrimidin-4-yl)-1H-pyrazol-1-yl)-3-cyclopentylpropanenitrile]",patients achieving spleen volume reduction of ≥35% (SVR35),[14],approximately 40%
same,time after start of monotherapy within which SVR35 is typically observed,[14],≤ 12 weeks
same,Ruxolitinib EC50,[6],0.0825 µg/mL
same,Ruxolitinib EC50,[6]; listed as ruxolitinib,0.08248 µg/mL
same,Ruxolitinib Emax,"[6]; fixed, assumed (JAKAFI approval package)",1
same,ruxolitinib dose reductions due to anemia,[7]; [16],18.2%
same,ruxolitinib dose reductions due to thrombocytopenia,[7]; [16],86.4%
same,subjects whose ruxolitinib dose was reduced to 10 mg BID,[7]; 25 subjects enrolled on ruxolitinib >10 mg BID,88%
same,"Ruxolitinib EC50, estimate",[8],0.0144 µg/mL
same,ruxolitinib factor for relative pseudo baseline platelet count,[11],1.53 fold
same,drop in platelet count,[11]; at average ruxolitinib concentration,~36%
same,"BaselineFactor (ruxolitinib factor on baseline platelet count), estimate and 95% confidence interval",[11]; pseudo baseline at initiation of ruxolitinib relative to baseline at initiation of navitoclax,1.53 (1.41; 1.65)
same,Ruxolitinib Emax,[15],0.765 fixed
same,Ruxolitinib Emax,[15]; listed as ruxolitinib,0.765
